Legend:
TLR7 = biological target: T1, TLR7 (Homo sapiens, UniProt Q9NYK1); assay: Human PBMC cell-based assay, TLR7 agonist GS-986 stimulation, cytokine (IL-6 and IFNα) readout; settings: human PBMCs, GS-986 400 nM, 6 hours; Table 26; read-out: TLR-7 EC50
T1 construct: lymphocytes, monocytes and dendritic cells that express TLR7, TLR8 and TLR9; endogenous in cells; host or cells: human PBMCs from healthy donors
T1 sequence (Q9NYK1 27-1049): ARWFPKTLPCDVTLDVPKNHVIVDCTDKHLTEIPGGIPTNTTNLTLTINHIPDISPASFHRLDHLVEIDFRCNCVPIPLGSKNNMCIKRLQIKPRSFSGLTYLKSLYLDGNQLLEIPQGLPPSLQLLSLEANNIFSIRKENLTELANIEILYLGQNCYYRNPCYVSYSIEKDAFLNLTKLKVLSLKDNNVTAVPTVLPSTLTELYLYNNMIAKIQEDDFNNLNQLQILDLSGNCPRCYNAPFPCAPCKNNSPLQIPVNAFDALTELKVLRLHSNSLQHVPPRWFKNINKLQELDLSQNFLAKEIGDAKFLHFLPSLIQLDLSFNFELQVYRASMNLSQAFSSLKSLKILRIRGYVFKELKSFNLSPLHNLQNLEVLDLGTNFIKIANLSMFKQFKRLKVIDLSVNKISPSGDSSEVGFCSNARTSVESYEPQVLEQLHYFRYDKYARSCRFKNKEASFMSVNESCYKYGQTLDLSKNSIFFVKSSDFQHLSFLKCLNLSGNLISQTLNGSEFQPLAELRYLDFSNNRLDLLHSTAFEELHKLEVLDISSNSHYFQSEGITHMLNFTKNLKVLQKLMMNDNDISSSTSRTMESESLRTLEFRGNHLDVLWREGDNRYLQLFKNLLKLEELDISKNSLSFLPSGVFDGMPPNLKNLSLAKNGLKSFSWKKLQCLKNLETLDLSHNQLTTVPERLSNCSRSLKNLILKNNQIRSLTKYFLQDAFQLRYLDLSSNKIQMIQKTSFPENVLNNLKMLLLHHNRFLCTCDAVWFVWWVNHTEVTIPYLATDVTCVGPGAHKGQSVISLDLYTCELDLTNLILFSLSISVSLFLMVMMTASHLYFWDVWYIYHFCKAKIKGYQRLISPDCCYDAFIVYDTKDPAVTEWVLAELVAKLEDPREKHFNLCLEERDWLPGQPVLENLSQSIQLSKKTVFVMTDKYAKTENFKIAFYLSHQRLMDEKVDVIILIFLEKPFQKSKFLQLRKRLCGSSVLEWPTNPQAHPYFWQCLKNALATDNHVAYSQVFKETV
Description: (§1) Human peripheral blood mononuclear cells (PBMCs) consist of lymphocytes, monocytes and dendritic cells that express TLR7, TLR8 and TLR9. These cells respond to TLR7, TLR8 and TLR9 ligand stimulation and produce cytokines and chemokines in vitro and in vivo. Human PBMCs are therefore suitable to be used in a cell-based assay to assess the in vitro potency of a TLR 7, 8, and/or 9 antagonist. The result is expected to be more translatable to the pharmacodynamics response in vivo than cell line-based assays.
(§2) Cryopreserved human PBMCs from healthy donors were thawed and resuspended in RPMI-1640 media with L-glutamine (Corning) supplemented with 10% Fetal Bovine Serum (Hyclone) and 1X Penicillin-Streptomycin (Corning). After counting, the cell density was adjusted to 2 million cells/ml and incubated for 1 hour at 37° C., 5% CO2 for recovery. Following the recovery, the cells were plated by adding 50p per well (100,000 cells) to 384-well cell culture plates (Greiner) containing 250nl of test antagonists in 100% DMSO per well, in a 10 points dose response in quadruplicates. PBMCs were incubated in the presence of test antagonists for one hour at 37° C., 5% CO2 before being stimulated with a TLR7 or TLR9 agonist. GS-986 (Gilead Sciences) was used as the TLR7 agonist at a final concentration of 400 nM. ODN-2216 (InvivoGen) was used as the TLR9 agonist at a final concentration of 3μM. PBMCs were incubated in the presence of the test antagonist and the TLR7 (or TLR9) agonist for an additional 6 hours at 37° C., 5% CO2. At the end of the incubation, the cell culture plates were centrifuged at 500 g for 5 min, and the cell culture supernatant was collected. The level of cytokines (IL-6 and IFNα) in the supernatant was measured by electrochemiluminescence immunoassays (Mesoscale Discovery) following manufacturer's recommended protocols. The level of cytokine measured was plotted against the test antagonist concentration and fitted to a sigmoidal function to determine the EC50, which are shown below in Table 26.

TLR9 = biological target: T2, TLR9 (Homo sapiens, UniProt Q9NR96); assay: Human PBMC cell-based assay, TLR9 agonist ODN-2216 stimulation, cytokine (IL-6 and IFNα) readout; settings: human PBMCs, ODN-2216 3 μM, 6 hours; Table 26; read-out: TLR-9 EC50
T2 construct: lymphocytes, monocytes and dendritic cells that express TLR7, TLR8 and TLR9; endogenous in cells; host or cells: human PBMCs from healthy donors
T2 sequence (Q9NR96 26-1032): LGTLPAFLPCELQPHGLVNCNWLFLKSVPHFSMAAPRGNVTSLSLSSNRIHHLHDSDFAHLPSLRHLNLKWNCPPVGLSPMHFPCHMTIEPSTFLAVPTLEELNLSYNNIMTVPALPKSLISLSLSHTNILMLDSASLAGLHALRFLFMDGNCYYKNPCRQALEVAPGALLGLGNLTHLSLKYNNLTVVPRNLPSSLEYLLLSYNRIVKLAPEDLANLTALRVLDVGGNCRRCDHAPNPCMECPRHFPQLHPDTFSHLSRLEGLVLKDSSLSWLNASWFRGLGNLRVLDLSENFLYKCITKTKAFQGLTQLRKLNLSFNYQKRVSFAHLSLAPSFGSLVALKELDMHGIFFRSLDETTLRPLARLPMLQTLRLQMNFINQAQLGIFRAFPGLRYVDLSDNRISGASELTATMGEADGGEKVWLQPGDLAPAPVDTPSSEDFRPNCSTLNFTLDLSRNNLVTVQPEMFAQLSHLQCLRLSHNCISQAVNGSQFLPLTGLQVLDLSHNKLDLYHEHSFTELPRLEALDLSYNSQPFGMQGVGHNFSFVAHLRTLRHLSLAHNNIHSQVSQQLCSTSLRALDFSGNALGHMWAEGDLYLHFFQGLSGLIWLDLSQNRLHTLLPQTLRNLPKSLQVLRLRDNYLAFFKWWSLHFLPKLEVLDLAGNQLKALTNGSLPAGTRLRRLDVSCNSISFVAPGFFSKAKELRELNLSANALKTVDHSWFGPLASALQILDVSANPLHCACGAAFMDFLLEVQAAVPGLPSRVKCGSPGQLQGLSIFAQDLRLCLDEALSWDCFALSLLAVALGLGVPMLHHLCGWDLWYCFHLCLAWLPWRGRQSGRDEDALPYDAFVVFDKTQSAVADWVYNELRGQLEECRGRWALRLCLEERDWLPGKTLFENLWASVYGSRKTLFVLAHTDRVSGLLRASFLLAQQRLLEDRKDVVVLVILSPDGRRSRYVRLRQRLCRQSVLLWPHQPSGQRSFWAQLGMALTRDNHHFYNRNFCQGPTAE
Description: as §1, §2

SMILES	EC50 (TLR7) [nM]	EC50 (TLR9) [nM]
Cc1cc(-c2[nH]c3cc(-c4cnn(C5CCCNC5)c4)ccc3c2C)cc(C)n1 (stereo not shown) [Example 18]	89.9	87.6
Cc1cc(-c2[nH]c3cc(-c4ccc(C5=CCCNC5)nc4)ccc3c2C)cc(C)n1 [Example 162]	9.1	30
Cc1cc(-c2[nH]c3cc(-c4ccc(N5CCN(C(=O)[C@H]6CCCN6C)CC5)nc4)ccc3c2C)cc(C)n1 [Example 109]	15.3	35.5
Cc1cc(-c2[nH]c3nc(C4CCNCC4)ccc3c2C)cc(C)n1 [Example 152, 2-(2,6-dimethyl-4-pyridyl)-3-methyl-6-(4-piperidyl)-1H-pyrrolo[2,3-b]pyridine]	1420	178
Cc1cc(-c2[nH]c3cc(-c4ccc(N5CCNCC5)nc4)ccc3c2C)c2ccccc2n1 [Example 90]	29.8	753
Cc1cc(-c2[nH]c3cc(-c4cnc(N5CCNCC5)nc4)ccc3c2C2CC2)cc(C)n1 [Example 67]	3	199
Cc1cc(-c2[nH]c3cc(-c4ccc(N5CCNC6(CC6)C5)nc4)ccc3c2C)cc(C)n1 [Example 22, 6-(6-(4,7-diazaspiro[2.5]octan-7-yl)pyridin-3-yl)-2-(2,6-dimethylpyridin-4-yl)-3-methyl-1H-indole]	64.4	153
Cc1cc(-c2[nH]c3cc(-c4ccc(N5CCN(CCN(C)C)CC5)nc4)ccc3c2C)cc(C)n1 [Example 114, 2-(4-(5-(2-(2,6-dimethylpyridin-4-yl)-3-methyl-1H-indol-6-yl)pyridin-2-yl)piperazin-1-yl)-N,N-dimethylethan-1-amine]	21.6	36.1
Cc1cc(-c2[nH]c3cc(-c4ccc(N5CCN(C(=O)CN(C)C)CC5)nc4)ccc3c2C)cc(C)n1 [Example 106, 2-(dimethylamino)-1-(4-(5-(2-(2,6-dimethylpyridin-4-yl)-3-methyl-1H-indol-6-yl)pyridin-2-yl)piperazin-1-yl)ethan-1-one]	39.8	18.2
CNCCN(C)c1ccc(-c2ccc3c(C)c(-c4cc(C)nc(C)c4)[nH]c3c2)cn1 [Example 30]	24.1	55.8
COc1cc(-c2[nH]c3cc(-c4ccc(N5CCNCC5)nc4)ccc3c2C)cc(C)n1 [Example 79]	10.9	994
Cc1cc(-c2[nH]c3cc(-c4ccc(N5CCNCC5)cc4)ccc3c2C)cc(C)n1 [Example 66]	83.2	51.2
Cc1cc(-c2[nH]c3cc(-c4nc(C5CCNCC5)no4)ccc3c2C)cc(C)n1 [Example 189]	108	217
Cc1cc(-c2[nH]c3cc(-c4ccc(S(=O)(=O)C5CCNCC5)cc4)ccc3c2C)cc(C)n1 [Example 42]	150	106
Cc1cc(-c2[nH]c3cc(-c4cnn5c4CNCC5)ccc3c2C)cc(C)n1 [Example 10]	210	392
Cc1cc(-c2[nH]c3cc(-c4csc(N5CCNCC5)n4)ccc3c2C)cc(C)n1 [Example 146, 4-[2-(2,6-dimethyl-4-pyridyl)-3-methyl-1H-indol-6-yl]-2-piperazin-1-yl-thiazole]	119	37.4
Cc1c(-c2cc(C)c3ncnn3c2)[nH]c2cc(C3CCNCC3)ccc12 [Example 51]	35.8	1670
Cc1cc(-c2[nH]c3cc(-c4ccc(N5CCC(N)CC5)nc4)ccc3c2C)cc(C)n1 [Example 21, 1-(5-(2-(2,6-dimethylpyridin-4-yl)-3-methyl-1H-indol-6-yl)pyridin-2-yl)piperidin-4-amine]	8.6	28.3

Further lines, results first:

EC50 (TLR7) [nM]	EC50 (TLR9) [nM]	SMILES
77.3	499	Cc1c(-c2ccnc(C#N)c2)[nH]c2cc(-c3ccc(N4CCNCC4)nc3)ccc12 [Example 75]
48.3	35.2	Cc1cc(-c2[nH]c3cc(-c4cnc5c(c4)CCNC5)ccc3c2C)cc(C)n1 [Example 181, 3-[2-(2,6-dimethyl-4-pyridyl)-3-methyl-1H-indol-6-yl]-5,6,7,8-tetrahydro-1,7-naphthyridine]
222	784	Cc1cc(-c2[nH]c3cc(C4CCNCC4)ccc3c2C(C)C)cc(C)n1 [Example 50, 2-(2,6-dimethylpyridin-4-yl)-3-isopropyl-6-(piperidin-4-yl)-1H-indole]
37.8	45.6	CNCC(=O)N1CCN(c2ccc(-c3ccc4c(C)c(-c5cc(C)nc(C)c5)[nH]c4c3)cn2)CC1 [Example 136]
6.7	187	CCc1c(-c2cc(C)nc(C)c2)[nH]c2cc(-c3ccc(N4CCNCC4)nc3)ccc12 [Example 70, 2-(2,6-dimethylpyridin-4-yl)-3-ethyl-6-(6-(piperazin-1-yl)pyridin-3-yl)-1H-indole]
374	3040	COc1cc(-c2ccc3c(C)c(-c4cc(C)nc(C)c4)[nH]c3c2)ccn1 [Example 56, 2-(2,6-dimethylpyridin-4-yl)-6-(2-methoxypyridin-4-yl)-3-methyl-1H-indole]
134	112	Cc1cc(-c2[nH]c3cc(-c4cccc(C(=O)N5CC[C@@H](N)C5)c4)ccc3c2C)cc(C)n1 [Example 121]
270	110	Cc1cc(-c2[nH]c3cc(-c4ccnc(N5CCN(C)CC5)c4)ccc3c2C)cc(C)n1 [Example 60, 2-(2,6-dimethylpyridin-4-yl)-3-methyl-6-(2-(4-methylpiperazin-1-yl)pyridin-4-yl)-1H-indole]
